The assay deals with T1, human recombinant (CHO cell) AT1 receptor (Homo sapiens, UniProt P30556).
T1 construct: expressed in transfected cells; host or cells: CHO cells
T1 sequence (P30556 1-359): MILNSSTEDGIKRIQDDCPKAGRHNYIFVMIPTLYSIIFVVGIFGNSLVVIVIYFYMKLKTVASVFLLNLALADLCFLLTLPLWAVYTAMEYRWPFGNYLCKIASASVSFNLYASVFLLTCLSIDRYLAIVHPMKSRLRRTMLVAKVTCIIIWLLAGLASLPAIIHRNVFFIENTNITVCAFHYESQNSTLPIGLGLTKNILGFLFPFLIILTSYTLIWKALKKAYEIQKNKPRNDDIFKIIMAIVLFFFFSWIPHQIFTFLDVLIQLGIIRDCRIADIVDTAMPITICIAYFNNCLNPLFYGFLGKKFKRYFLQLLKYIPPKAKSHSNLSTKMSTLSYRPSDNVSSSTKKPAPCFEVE
Put plainly: Angiotensin II inhibition test (radioligand binding to AT1 receptor). The following applies: test compound concentration 10^−9 M, radioactive iodine-labeled angiotensin II, 37° C., sixty minutes; for inhibition at 0.001 µM: read-out: Inhibition rate (%). How it is done: A test of inhibition of angiotensin II to human recombinant (CHO cell) AT1 receptor following a method described in the literature (for example, Regul. Pept., vol. 44 (2), page 131 (1993)) was used to measure inhibitory activity to a test compound.
The ligand used was 10^−9 M of a test compound dissolved in 1% DMSO (dimethylsulfoxide). This was reacted with radioactive iodine-labeled angiotensin II at 37° C. for sixty minutes. Taking the inhibition rate of angiotensin II at 10 μM as nonspecific binding, the specific binding rate was calculated by subtracting this nonspecific portion. Table 6 indicates the results (the inhibition rate at test compound concentration: 10^−9 M)

For `CCCCc1nc(Cl)c(C[S+]([O-])c2ccc3nc(COc4ccc(CC5SC(=O)NC5=O)cc4)n(C)c3c2)n1Cc1ccc(-c2ccccc2-c2nnn[nH]2)cc1` (centres unmarked) [Example 23, 5-(4-{6-[2-butyl-4-chloro-1-[2′-(1H-tetrazol-5-yl)biphenyl-4-ylmethyl]-1H-imidazol-5-ylmethylsulfinyl]-1-methyl-1H-benzimidazol-2-ylmethoxy}benzyl)thiazolidine-2,4-dione], the inhibition (commonly the share of the control response that was lost under treatment) at 0.001 µM worked out at 22%.

Take `CCCc1nc(C[S+]([O-])c2ccc(Oc3ccc4nc(COc5ccc(CC6SC(=O)NC6=O)cc5)n(C)c4c3)cc2)c(C(=O)OCC)n1Cc1ccc(-c2ccccc2-c2nnn[nH]2)cc1` (centres unmarked) [Example 25, 4-[4-{2-[4-(2,4-dioxothiazolidin-5-ylmethyl)phenoxymethyl]-1-methyl-1H-benzimidazol-6-yloxy}phenylsulfinylmethyl]-2-propyl-1-[2′-(1H-tetrazol-5-yl)biphenyl-4-ylmethyl]-1H-imidazole-5-carboxylic acid ethyl ester]: the inhibition at 0.001 µM came out at 32%. Same read-out and setting: to `CCCc1nc(CNc2ccc(Oc3ccc4nc(COc5ccc(CC6SC(=O)NC6=O)cc5)n(C)c4c3)cc2)c(C(=O)OCC)n1Cc1ccc(-c2ccccc2-c2nnn[nH]2)cc1` (centres unmarked) [Example 31, 4-{N-[4-[2-(4-[2,4-dioxothiazolidin-5-ylmethyl]phenoxymethyl)-1-methyl-1H-benzimidazol-6-yloxy]phenyl]aminomethyl}-2-propyl-1-[2′-(1H-tetrazol-5-yl)biphenyl-4-ylmethyl]-1H-imidazole-5-carboxylic acid ethyl ester] belongs 22%; to `CCCc1nc(CSc2ccc3nc(COc4ccc(CC5SC(=O)NC5=O)cc4)n(C)c3c2)c(C(=O)OCC)n1Cc1ccc(-c2ccccc2-c2nnn[nH]2)cc1` (centres unmarked) [Example 33, 4-{2-[4-(2,4-dioxothiazolidin-5-ylmethyl)phenoxymethyl]-1-methyl-1H-benzimidazol-6-ylthiomethyl}-2-propyl-1-[2′-(1H-tetrazol-5-yl)biphenyl-4-ylmethyl]-1H-imidazole-5-carboxylic acid ethyl ester], 87%. Regarding `CCCc1nc(CSc2ccc(Oc3ccc4nc(COc5ccc(CC6SC(=O)NC6=O)cc5)n(C)c4c3)cc2)c(C(=O)NC)n1Cc1ccc(-c2ccccc2-c2nnn[nH]2)cc1` (centres unmarked) [Example 27, N-methyl-(4-[4-{2-[4-(2,4-dioxothiazolidyn-5-ylmethyl)phenoxymethyl]-1-methyl-1H-benzimidazol-6-yloxy}phenylthiomethyl]-2-propyl-1-[2′-(1H-tetrazol-5-yl)biphenyl-4-ylmethyl]-1H-imidazole)-5-carboxamide], the “Inhibition rate (%)” value was determined as 66%.

As for `CCCc1nc(CS(=O)(=O)c2ccc(Oc3ccc4nc(COc5ccc(CC6SC(=O)NC6=O)cc5)n(C)c4c3)cc2)c(C(=O)OCC)n1Cc1ccc(-c2ccccc2-c2nnn[nH]2)cc1` (centres unmarked) [Example 26, 4-[4-{2-[4-(2,4-dioxothiazolidin-5-ylmethyl)phenoxymethyl]-1-methyl-1H-benzimidazol-6-yloxy}phenylsulfonylmethyl]-2-propyl-1-[2′-(1H-tetrazol-5-yl)biphenyl-4-ylmethyl]-1H-imidazole-5-carboxylic acid ethyl ester], the inhibition at 0.001 µM was found to be 44%.

For the compound `CCCc1nc(CSc2ccc3nc(COc4ccc(CN(CC(=O)O)C(=O)Oc5ccccc5)cc4)n(C)c3c2)c(C(=O)OCC)n1Cc1ccc(-c2ccccc2-c2nnn[nH]2)cc1` [Example 36, N-[4-{6-[5-ethoxycarbonyl-1-{2′-(1H-tetrazol-5-yl)biphenyl-4-ylmethyl}-2-propyl-1H-imidazol-4-ylmethylthio]-1-methyl-1H-benzimidazol-2-ylmethoxy}phenylmethyl]-N-phenyloxycarbonylaminoacetic acid], the inhibition at 0.001 µM was 83%. As for `CCCc1nc(COc2ccc3nc(COc4ccc(CC5SC(=O)NC5=O)cc4)n(C)c3c2)c(C(=O)OCC)n1Cc1ccc(-c2ccccc2-c2nnn[nH]2)cc1` (centres unmarked) [Example 7, 4-{2-[4-(2,4-dioxothiazolidin-5-ylmethyl)phenoxymethyl]-1-methyl-1H-benzimidazol-6-yloxymethyl}-2-propyl-1-[2′-(1H-tetrazol-5-yl)biphenyl-4-ylmethyl]-1H-imidazole-5-carboxylic acid ethyl ester], the inhibition at 0.001 µM worked out at 52%. Still for that read-out and setting: then `CCCc1nc2c(C)cc(CN(C)c3ccc4nc(COc5ccc(CC6SC(=O)NC6=O)cc5)n(C)c4n3)cc2n1Cc1ccc(-c2ccccc2C(=O)O)cc1` (centres unmarked) [Example 10, 4′-[6-(N-{2-[4-(2,4-dioxothiazolidin-5-ylmethyl)phenoxymethyl]-3-methyl-3H-imidazo[4,5-b]pyridin-5-yl}-N-methylaminomethyl)-4-methyl-2-propyl-1H-benzimidazol-1-ylmethyl]biphenyl-2-carboxylic acid], with 41%; and `CCCc1nc2c(C)cc(C(=O)NCc3ccc(Oc4ccc5nc(COc6ccc(CC7SC(=O)NC7=O)cc6)n(C)c5c4)cc3)cc2n1Cc1ccc(-c2ccccc2-c2nnn[nH]2)cc1` (centres unmarked) [Example 28, 5-[4-[6-{4-(4-methyl-2-propyl-1-[2′-(1H-tetrazol-5-yl)biphenyl-4-ylmethyl]-1H-benzimidazol-6-ylcarbonylaminomethyl)phenoxy}-1-methyl-1H-benzimidazol-2-ylmethoxy]benzyl]thiazolidin-2,4-dione], with 66%. On the same count and under the same terms, to `CCCc1nc(CSc2ccc(Oc3ccc4nc(COc5ccc(CC6SC(=O)NC6=O)cc5)n(C)c4c3)cc2)c(C(=O)OC)n1Cc1ccc(-c2ccccc2-c2nnn[nH]2)cc1` (centres unmarked) [Example 30, 4-[4-{2-[4-(2,4-dioxothiazolidin-5-ylmethyl)phenoxymethyl]-1-methyl-1H-benzimidazol-6-yloxy}phenylthiomethyl]-2-propyl-1-[2′-(1H-tetrazol-5-yl)biphenyl-4-ylmethyl]-1H-imidazole-5-carboxylic acid methyl ester] belongs 66%. `CCCc1nc(COc2ccc(Sc3ccc4nc(COc5ccc(CC6SC(=O)NC6=O)cc5)n(C)c4c3)cc2)c(C(=O)OCC)n1Cc1ccc(-c2ccccc2-c2nnn[nH]2)cc1` (centres unmarked) [Example 29, 4-[4-{2-[4-(2,4-dixothiazolidin-5-ylmethyl)phenoxymethyl]-1-methyl-1H-benzimidazol-6-ylthio}phenoxymethyl]-2-propyl-1-[2′-(1H-tetrazol-5-yl)biphenyl-4-ylmethyl]-1H-imidazole-5-carboxylic acid ethyl ester]: the “Inhibition rate (%)” value worked out at 40%. On the same count and under the same terms, to `CCCc1nc(CSCCNC(=O)CSc2ccc3nc(COc4ccc(CC5SC(=O)NC5=O)cc4)n(C)c3c2)c(C(=O)OCC)n1Cc1ccc(-c2ccccc2-c2nnn[nH]2)cc1` (centres unmarked) [Example 19] belongs 65%. `CCCc1nc(CSc2ccc3nc(COc4ccc(CC(OCc5ccc(Cl)cc5)C(=O)O)cc4)n(C)c3c2)c(C(=O)OCC)n1Cc1ccc(-c2ccccc2-c2nnn[nH]2)cc1` (centres unmarked) [Example 35, 3-[4-[6-(5-ethoxycarbonyl-1-{2′-(1H-tetrazol-5-yl)biphenyl-4-ylmethyl}-2-propyl-1H-imidazol-4-ylmethylthio)-1-methyl-1H-benzimidazol-2-ylmethoxy]phenyl]-2-(4-chlorobenzyloxy)propionic acid]: the inhibition at 0.001 µM was determined as 90%.

Source of the values: patent US20130165446A1 (priority 2010, published 2013).
